The text below walks through data of EP4786451A1, “COMPOUND TARGETING INTEGRIN AND USE THEREOF IN RNAI AGENT” (YUN HO BIO CO., LTD, priority 2023, dated 2025).

“And” between values parts separate entries of the source, which are not always exact repeats. Equal values may be shown once. Read-outs that look alike come from different tables or passages of the source.

The target in test [1] is T1, Integrin αvβ6 Receptor (Homo sapiens, UniProt P06756+P18564). The test is described as follows: HTRF binding activity to integrin αvβ6 receptor (competition with LAP (TGF-beta 1)). As to conditions: for specific binding ability to the αvβ6 receptor: αvβ6 compared with αvβ1 and αvβ5; for Hillslope: fit parameter of the inhibition curve; for Max: maximum of the inhibition curve; for Min: minimum of the inhibition curve. The method, then:
Main Experimental Reagents and Consumables
Inhibition rate and fit IC50 was calculated using Excel and XL-Fit respectively, formula as follows: Inhibition % = (Max−Signal)/(Max−Min)*100 [formula] Y = Bottom + (Top−Bottom)/(1+(IC50/X)[…]), [formula] Y and X represent %inhibition and compound concentration respectively
Background: TR-FRET usually uses a lanthanide donor and a delayed reading to cut background.

The target in test [2] is Integrin αvβ1 Receptor (Homo sapiens, UniProt P05556+P06756). The test can be described thus: Fluorescence polarization (FP) binding activity to integrin αvβ1 receptor (competition with Cyclo[-RGDy-K(5-FAM)]). The conditions noted are these: Table 4, different integrin receptors. In general terms: In fluorescence polarisation assays a small probe gives low polarisation when free and higher when bound to something large.
Sequence of Integrin αvβ1 Receptor (P06756 31-992 limits assumed): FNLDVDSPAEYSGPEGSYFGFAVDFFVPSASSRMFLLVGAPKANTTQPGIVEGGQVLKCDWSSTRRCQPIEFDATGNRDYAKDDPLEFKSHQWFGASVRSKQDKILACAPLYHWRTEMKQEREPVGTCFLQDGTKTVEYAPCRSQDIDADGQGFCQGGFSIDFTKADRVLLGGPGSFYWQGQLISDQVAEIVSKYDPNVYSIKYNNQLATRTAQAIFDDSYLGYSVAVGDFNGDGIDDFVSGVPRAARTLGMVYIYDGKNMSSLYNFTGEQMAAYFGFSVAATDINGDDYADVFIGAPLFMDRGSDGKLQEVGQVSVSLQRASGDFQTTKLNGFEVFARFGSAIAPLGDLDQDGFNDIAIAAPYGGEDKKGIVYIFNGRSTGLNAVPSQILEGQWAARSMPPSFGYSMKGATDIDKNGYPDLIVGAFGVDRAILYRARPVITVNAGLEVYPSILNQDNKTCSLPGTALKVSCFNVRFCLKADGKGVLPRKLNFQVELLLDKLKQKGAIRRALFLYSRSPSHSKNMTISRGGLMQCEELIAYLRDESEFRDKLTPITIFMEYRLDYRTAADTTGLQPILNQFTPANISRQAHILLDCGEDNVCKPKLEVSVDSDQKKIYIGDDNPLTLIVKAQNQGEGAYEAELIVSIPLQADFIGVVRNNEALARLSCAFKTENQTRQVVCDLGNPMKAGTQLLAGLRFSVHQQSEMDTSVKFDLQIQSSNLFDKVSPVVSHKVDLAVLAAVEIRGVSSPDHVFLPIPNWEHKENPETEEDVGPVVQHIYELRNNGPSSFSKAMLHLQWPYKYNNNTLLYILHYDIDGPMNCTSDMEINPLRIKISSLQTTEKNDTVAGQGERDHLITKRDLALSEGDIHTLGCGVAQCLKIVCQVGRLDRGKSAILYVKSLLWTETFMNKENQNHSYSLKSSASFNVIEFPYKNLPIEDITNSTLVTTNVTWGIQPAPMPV
Sequence of Integrin αvβ1 Receptor (P05556 21-728 limits assumed): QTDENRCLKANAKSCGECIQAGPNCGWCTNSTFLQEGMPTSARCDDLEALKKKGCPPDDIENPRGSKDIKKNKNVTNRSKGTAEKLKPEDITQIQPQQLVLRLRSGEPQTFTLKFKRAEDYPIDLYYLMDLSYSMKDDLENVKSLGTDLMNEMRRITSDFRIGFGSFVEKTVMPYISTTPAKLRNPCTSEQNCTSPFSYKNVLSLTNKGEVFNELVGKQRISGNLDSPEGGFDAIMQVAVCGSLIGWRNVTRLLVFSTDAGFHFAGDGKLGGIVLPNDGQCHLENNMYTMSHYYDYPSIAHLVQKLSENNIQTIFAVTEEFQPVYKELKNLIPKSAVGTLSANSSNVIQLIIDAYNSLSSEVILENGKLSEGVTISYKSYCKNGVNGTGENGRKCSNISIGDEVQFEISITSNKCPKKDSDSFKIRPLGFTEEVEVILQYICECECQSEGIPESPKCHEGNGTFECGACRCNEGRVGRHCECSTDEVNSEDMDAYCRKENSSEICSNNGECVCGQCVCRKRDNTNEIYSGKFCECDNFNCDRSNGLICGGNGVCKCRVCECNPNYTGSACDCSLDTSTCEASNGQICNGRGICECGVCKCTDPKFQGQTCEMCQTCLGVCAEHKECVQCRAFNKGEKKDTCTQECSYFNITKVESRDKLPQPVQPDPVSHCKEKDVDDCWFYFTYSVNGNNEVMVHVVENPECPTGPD

Test [3] has as its target Integrin αvβ5 Receptor (Homo sapiens, UniProt P06756+P18084). The test can be described thus: HTRF binding activity to integrin αvβ5 receptor (competition with Vitronectin).
Procedure: B. Evaluation of Compound Binding Activity to Integrin αvβ5 Receptor using Homogeneous Time-Resolved Fluorescence (HTRF) Technology
Compound Preparation: Same as A.
Then 5 µL of integrin receptor protein αvβ5 was added (5 µL of assay buffer was added for negative control), incubated at room temperature for 20 minutes. Next, 5 µL of ligand protein VTN, and 10 µL of the SA-Tb and Anti-His XL665 mixture were added respectively, incubated at room temperature for 1 hour.
The target of test [4] is T1, Integrin αvβ6 Receptor. The test can be described thus: HTRF binding activity to integrin αvβ6 receptor (competition with LAP (TGF-beta 1)). As to conditions: for Hillslope: fit parameter of the inhibition curve; for Emax: maximum of the inhibition curve, read-out: Max; for IC50: table of 5FAM-labelled compounds. The method, then: Reagent Preparation: Assay buffer was prepared.

[5] abbreviates: Integrin αvβ6, HTRF, Table 3, several runs, each with Cilengitide and 1 as references, read-out: IC50.
Where [6] appears, read: IC50 (nM) αvβ5, Table 4, different integrin receptors.
Setting [7] is: Table 4, different integrin receptors, read-out: IC50 (nM) αvβ6.
The mark [8] stands for this setting: Integrin αvβ6, HTRF, table of 5FAM-labelled compounds, read-out: IC50.

Sequence of Integrin αvβ5 Receptor (P06756 31-992 limits assumed): as the sequence (P06756 31-992 limits assumed) above
Sequence of Integrin αvβ5 Receptor (P18084 24-719 limits assumed): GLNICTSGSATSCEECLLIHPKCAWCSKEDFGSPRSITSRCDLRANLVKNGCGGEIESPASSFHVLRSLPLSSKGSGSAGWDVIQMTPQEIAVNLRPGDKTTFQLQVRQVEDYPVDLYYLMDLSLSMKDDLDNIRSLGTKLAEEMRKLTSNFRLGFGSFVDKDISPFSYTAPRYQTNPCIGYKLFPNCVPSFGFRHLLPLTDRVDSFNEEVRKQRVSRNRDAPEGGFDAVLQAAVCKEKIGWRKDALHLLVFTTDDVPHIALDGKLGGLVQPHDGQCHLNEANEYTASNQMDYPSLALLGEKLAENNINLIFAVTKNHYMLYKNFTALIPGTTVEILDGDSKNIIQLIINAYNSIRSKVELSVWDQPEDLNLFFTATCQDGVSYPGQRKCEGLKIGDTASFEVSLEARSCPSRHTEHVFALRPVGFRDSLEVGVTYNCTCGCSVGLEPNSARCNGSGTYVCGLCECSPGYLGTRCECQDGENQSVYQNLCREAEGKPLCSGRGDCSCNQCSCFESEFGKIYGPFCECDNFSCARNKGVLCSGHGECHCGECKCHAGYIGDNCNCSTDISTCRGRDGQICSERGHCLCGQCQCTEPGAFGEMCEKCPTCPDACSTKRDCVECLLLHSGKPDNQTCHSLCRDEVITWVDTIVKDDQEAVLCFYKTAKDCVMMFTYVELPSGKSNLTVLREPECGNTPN
T1 sequence (P06756 31-992 limits assumed): as the sequence (P06756 31-992 limits assumed) above
T1 sequence (P18564 22-707 limits assumed): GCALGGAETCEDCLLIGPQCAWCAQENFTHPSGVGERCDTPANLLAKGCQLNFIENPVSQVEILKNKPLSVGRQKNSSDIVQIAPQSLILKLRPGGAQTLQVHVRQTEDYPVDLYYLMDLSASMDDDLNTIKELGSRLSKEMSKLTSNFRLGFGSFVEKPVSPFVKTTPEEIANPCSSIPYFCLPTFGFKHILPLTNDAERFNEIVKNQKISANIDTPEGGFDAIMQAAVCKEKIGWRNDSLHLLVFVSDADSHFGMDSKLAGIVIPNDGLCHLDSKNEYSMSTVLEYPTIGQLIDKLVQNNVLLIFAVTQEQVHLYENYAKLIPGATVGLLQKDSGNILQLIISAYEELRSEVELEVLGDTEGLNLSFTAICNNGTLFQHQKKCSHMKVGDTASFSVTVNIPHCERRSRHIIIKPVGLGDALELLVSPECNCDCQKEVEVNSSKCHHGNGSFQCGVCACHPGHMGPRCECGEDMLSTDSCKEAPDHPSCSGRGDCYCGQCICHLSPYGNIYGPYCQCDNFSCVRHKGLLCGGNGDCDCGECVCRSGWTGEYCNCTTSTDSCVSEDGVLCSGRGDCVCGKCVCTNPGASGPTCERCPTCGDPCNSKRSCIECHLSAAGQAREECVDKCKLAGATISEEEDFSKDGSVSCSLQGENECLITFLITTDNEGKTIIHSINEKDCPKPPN

Consider `[N-]=[N+]=NCCOCCOCCOCCOCCOc1ccc(C(CC(=O)O)CN2CCC(CCc3ccc4c(n3)NCCC4)C2)cc1F` (stereo not shown) [Compound 83], for which, in test [1] (setting [5]), the IC50 stood at 3.7 nM.
As to `Cc1ccnc(NCCC2CCN(CC(=O)NC(CC(=O)O)c3ccc(-c4ccc(OCCOCCOCCOCCOCCN=[N+]=[N-])c5ccccc45)cc3)C2=O)c1` (single isomer, unassigned) [Compound 5-P1], the IC50 in test [2] turned out to be 753 nM; in test [3] (setting [6]) it was 83.4 nM; in test [1] (setting [5]), 3.6 nM; in test [1] (setting [7]), 3.6 nM. For the same compound, in test [1], the “specific binding ability to the αvβ6 receptor” value is on record as “specific binding ability to the αvβ6 receptor”.
For `[N-]=[N+]=NCCOCCOCCOCCOCCOc1cc(C(CC(=O)O)CN2CCC(CCc3ccc4c(n3)NCCC4)C2)ccc1F` (stereo not shown) [Compound 86], the IC50 in test [1] (setting [5]) turned out to be 4.5 nM.
Regarding `[N-]=[N+]=NCCOCCOCCOCCOCCOc1ccc(C(CC(=O)O)CN2CCC(CCc3ccc4c(n3)NCCC4)C2)cc1` (stereo not shown) [Compound 20-P2], the IC50 in test [1] (setting [5]) stood at 13.4 nM.
With `[N-]=[N+]=NCCOCCOCCOCCOCCOc1cccc(C(CC(=O)O)CN2CCC(CCc3ccc4c(n3)NCCC4)C2)c1` (stereo not shown) [Compound 18-P2], the IC50 in test [1] (setting [5]) came out at 13.9 nM.
Turning to `COC(=O)C[C@H](NC(=O)CNC(=O)CCCN(C(=O)OC(C)(C)C)c1cc(C)ccn1)c1ccc(-c2ccc(OCCOCCOCCOCCOCCn3cc(CNC(=O)c4ccc5c(c4)C(=O)OC54c5ccc(O)cc5Oc5cc(O)ccc54)nn3)c3ccccc23)cc1` [Compound 1NG-5FAM], in test [4], the Hillslope is given as 2.5, the Emax was 100% and the 50% inhibitory concentration (IC50) was determined as 41.9 nM.
`Cc1nn(-c2cccc(C(CC(=O)O)CN3CC[C@@H](CCc4ccc5c(n4)NCCC5)C3)c2)c(C)c1OCCOCCOCCOCCOCCN=[N+]=[N-]` (single isomer, unassigned) [Compound 14-P1]: in test [1] (setting [5]), the IC50 was found to be 9.4 nM.
The same measure, in the same setting: as for `[N-]=[N+]=NCCOCCOCCOCCOCCOc1cccc2c(-c3ccc(C(CC(=O)O)CN4CCC(CCc5ccc6c(n5)NCCC6)C4)cc3)cccc12` (stereo not shown) [Compound 71], the figure is 3 nM.
For the compound `Cc1ccnc(NCCCC(=O)NCC(=O)N[C@@H](CC(=O)O)c2ccc(-c3ccc(OCCOCCOCCOCCOCCN=[N+]=[N-])c4ccccc34)cc2)c1` [Compound 1, reference compound], the IC50 was 9.7 nM in test [2]; 3.4 nM in test [3] (setting [6]); 2.5 nM and 2.3 nM in test [1] (setting [5]); 2.5 nM in test [1] (setting [7]).
Regarding `[N-]=[N+]=NCCOCCOCCOCCOCCOc1ccc(F)c(C(CC(=O)O)CN2CCC(CCc3ccc4c(n3)NCCC4)C2)c1` (stereo not shown) [Compound 53], the IC50 in test [1] (setting [5]) worked out at 3.8 nM.
`Cc1ccnc(NCCC2CCN(CC(=O)NC(CC(=O)O)c3ccc(-c4ccc(OCCOCCOCCOCCOCCN=[N+]=[N-])c5ccccc45)cc3)C2=O)c1` (single isomer, unassigned) [Compound 5-P2]: the IC50 in test [2] stood at 333 nM; in test [3] (setting [6]), 142 nM; in test [1] (setting [5]), 3.9 nM; in test [1] (setting [7]), 3.9 nM. In addition, the “specific binding ability to the αvβ6 receptor” value in test [1] is recorded as “specific binding ability to the αvβ6 receptor”.
As to `Cc1ccnc(NCCCC(=O)NCC(=O)N[C@@H](CC(=O)O)c2ccc(-c3ccc(OCCOCCOCCOCCOCCn4cc(COCCOCCNC(=O)CCC(CCC(=O)NCCOCCOCc5cn(CCOCCOCCOCCOCCOc6ccc(-c7ccc([C@H](CC(=O)O)NC(=O)CNC(=O)CCCNc8cc(C)ccn8)cc7)c7ccccc67)nn5)(CCC(=O)NCCOCCOCc5cn(CCOCCOCCOCCOCCOc6ccc(-c7ccc([C@H](CC(=O)O)NC(=O)CNC(=O)CCCNc8cc(C)ccn8)cc7)c7ccccc67)nn5)NC(=O)CCCC(=O)NCCCCCCNC(=O)c5ccc6c(c5)C(=O)OC65c6ccc(O)cc6Oc6cc(O)ccc65)nn4)c4ccccc34)cc2)c1` [Compound 1-3-5FAM], in test [4], the Hillslope stood at 1.6, the Emax was 107% and the IC50 stood at 2.52 nM.
As to `[N-]=[N+]=NCCOCCOCCOCCOCCOc1cc(-c2ccccc2)cc(C(CC(=O)O)CN2CCC(CCc3ccc4c(n3)NCCC4)C2)c1` (stereo not shown) [Compound 59], the IC50 in test [1] (setting [5]) came to 2.9 nM.
In test [1] (Integrin αvβ6, HTRF), `O=C(O)c1ccc2c(c1)C(=O)OC21c2ccc(O)cc2Oc2cc(O)ccc21` [Compound 5FAM] registered a Hillslope of -11.5, a Max of 6.3 and a Min of -2.8. Besides, the IC50 in test [1] (setting [8]) was greater than 100 nM.
With `Cc1nn(-c2cccc(C(CC(=O)O)CN3CC[C@@H](CCc4ccc5c(n4)NCCC5)C3)c2)c(C)c1OCCOCCOCCOCCOCCN=[N+]=[N-]` (single isomer, unassigned) [Compound 14-P2], the IC50 came to 10.3 nM in test [2]; 0.7 nM in test [3] (read-out: IC50 (nM) αvβ5, Table 4, different integrin receptors); 3.5 nM in test [1] (setting [5]); 3.9 nM in test [1] (setting [7]).
On to `Cc1cc(C)n(-c2cccc(C(CC(=O)O)CN3CCC(CCc4nc5c(cc4CNC(=O)CCOCCOCCOCCOCCN=[N+]=[N-])CCCN5)C3)c2)n1` (stereo not shown) [Compound 13], for which the IC50 in test [1] (setting [5]) was 2.5 nM and 1.7 nM.
As for `O=C(NCc1cn(CCOCCOCCOCCOCCOCCN(CCCCc2ccc3c(n2)NCCC3)CC[C@H](Nc2ncnc3ccccc23)C(=O)O)nn1)c1ccc2c(c1)C(=O)OC21c2ccc(O)cc2Oc2cc(O)ccc21` [Compound 16-5FAM], in test [4], the Hillslope amounted to 1.4, the Emax was determined as 101% and the IC50 stood at 1.77 nM.
On to `Cc1nn(-c2cccc(C(CC(=O)O)CN3CC[C@@H](CCc4ccc5c(n4)NCCC5)C3)c2)c(C)c1OCCOCCOCCOCCOCCN=[N+]=[N-]` (stereo partly shown) [Compound 14], for which the IC50 in test [1] (setting [5]) was 4.9 nM and 2.8 nM.
For `CNc1cccc(CCCCC(=O)N[C@@H](CC(=O)O)c2ccc(-c3ccc(OCCOCCOCCOCCOCCn4cc(CNC(=O)c5ccc6c(c5)C(=O)OC65c6ccc(O)cc6Oc6cc(O)ccc65)nn4)c4ccccc34)cc2)n1` [Compound 7-5FAM], in test [4], the Hillslope turned out to be 1.2, the Emax came out at 102% and the IC50 was found to be 3.17 nM.
Turning to `Cc1ccnc(NCCCC(=O)N2CCN(C(CC(=O)O)c3ccc(-c4ccc(OCCOCCOCCOCCOCCn5cc(CNC(=O)c6ccc7c(c6)C(=O)OC76c7ccc(O)cc7Oc7cc(O)ccc76)nn5)c5ccccc45)cc3)CC2)c1` (stereo not shown) [Compound 4-5FAM], in test [4], the Hillslope was determined as 1.1 and the Emax was determined as 100%.
`Cc1ccnc(NCCCC(=O)NCC(=O)N[C@@H](CC(=O)O)c2ccc(-c3ccc(OCCOCCOCCOCCOCCn4cc(CNC(=O)c5ccc6c(c5)C(=O)OC65c6ccc(O)cc6Oc6cc(O)ccc65)nn4)c4ccccc34)cc2)c1` [Compound 1-5FAM]: in test [4], the Emax turned out to be 97% and the IC50 stood at 1.41 nM.
With `COCCN(CCCCc1ccc2c(n1)NCCC2)CC[C@H](Nc1ncnc2cc(OCCOCCOCCOCCOCCn3cc(CNC(=O)c4ccc5c(c4)C(=O)OC54c5ccc(O)cc5Oc5cc(O)ccc54)nn3)ccc12)C(=O)O` [Compound 17-5FAM], in test [4], the Hillslope was found to be 1.5, the Emax is 98.9% and the IC50 was found to be 7.99 nM.
Take `O=C(O)CC(NC(=O)CCCCc1nc2c(cc1CNC(=O)CCOCCOCCOCCOCCNC(=O)c1ccc3c(c1)C(=O)OC31c3ccc(O)cc3Oc3cc(O)ccc31)CCCN2)c1ccc(-c2cccc3ccccc23)cc1` (stereo not shown) [Compound 9-5FAM]: in test [1] (Integrin αvβ6, HTRF), the Hillslope was found to be 2.0, the Max turned out to be 103.1 and the Min is on record as -2.2. Moreover, the IC50 in test [1] (setting [8]) stood at 1.48 nM.
In the case of `CC(C)[C@H]1C(=O)N[C@@H](CCCNC(=N)N)C(=O)NCC(=O)N[C@@H](CC(=O)O)C(=O)N[C@H](Cc2ccccc2)C(=O)N1C` [Cilengitide, reference compound], in test [4], the Hillslope is on record as 1.2 and the Emax was 98.2%.
Consider `COCCOc1cc(OCCOCCOCCOCCOCCN=[N+]=[N-])cc(C(CC(=O)O)CN2CCC(CCc3ccc4c(n3)NCCC4)C2)c1` (stereo not shown) [Compound 57], for which the IC50 in test [1] (setting [5]) turned out to be 3.3 nM.
For the compound `Cc1ccnc(NCCC2CCN(CC(=O)N[C@@H](CC(=O)O)c3ccc(-c4ccc(OCCOCCOCCOCCOCCn5cc(CNC(=O)c6ccc7c(c6)C(=O)OC76c7ccc(O)cc7Oc7cc(O)ccc76)nn5)c5ccccc45)cc3)C2=O)c1` (stereo partly shown) [Compound 5-5FAM], in test [4], the Hillslope is 1.3 and the Emax turned out to be 107%.
Consider `[N-]=[N+]=NCCOCCOCCOCCOCCOc1ccc(-c2ccc(C(CC(=O)O)CN3CCC(CCc4ccc5c(n4)NCCC5)C3)cc2)cc1` (stereo not shown) [Compound 84], for which the 50% inhibitory concentration (IC50) in test [1] (setting [5]) turned out to be 3.8 nM.
The same measure, in the same setting: with `[N-]=[N+]=NCCOCCOCCOCCOCCOc1ccc(-c2ccc(C(CC(=O)O)CN3CCC(CCc4ccc5c(n4)NCCC5)C3)cc2)c2ccccc12` (stereo not shown) [Compound 49] the figure was 3.1 nM.
Turning to `CNc1cccc(CC(=O)NCC(=O)N[C@@H](CC(=O)O)c2ccc(-c3ccc(OCCOCCOCCOCCOCCn4cc(CNC(=O)c5ccc6c(c5)C(=O)OC65c6ccc(O)cc6Oc6cc(O)ccc65)nn4)c4ccccc34)cc2)n1` [Compound 6-5FAM], in test [4], the Hillslope was determined as 1.2, the Emax turned out to be 95.8% and the IC50 came to 1.6 nM.
With `Cc1nc(C)n(CCOCCOCCOCCOCCN=[N+]=[N-])c1-c1cccc(C(CC(=O)O)CN2CC[C@@H](CCc3ccc4c(n3)NCCC4)C2)c1` (stereo partly shown) [Compound 15], the half-inhibitory concentration (IC50) in test [1] (setting [5]) was found to be 2.5 nM.
For the compound `[N-]=[N+]=NCCOCCOCCOCCOCCOc1ccc(-c2ccc([C@H](CC(=O)O)NC(=O)CCCCc3ccc4c(n3)NCCC4)cc2)c2ccccc12` [Compound 8], in test [1] (Integrin αvβ6, HTRF), the Hillslope worked out at 2.5, the Max stood at 107.0 and the Min is recorded as -2.0. Besides, the IC50 in test [1] (setting [8]) came out at 1.37 nM.

A word on the IC50: it is the concentration that inhibits the measured activity by half.
